Experiments:
Experiment in all cases: combination Emax (second highest fraction inhibited in the dose matrix, 72 h); higher = more inhibition; extreme values may be limits of the assay
[1] = test system: IGROV-1 (Ovarian Carcinoma)
Outline: (§1)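 After 24 hours at 37°C and 5% CO2 in 1536-well plates, cells in DMEM/F12 or RPMI plus 10% FBS received two-drug dose matrices for 72 hours. Viability came from CellTiter-Glo 2.0 luminescence and was scaled as inhibition, anchored at 0 by vehicle wells and at 1 by blank wells. Combination Emax is taken as the second-highest inhibition in the matrix, and Bliss excess as the observed combination effect less EA + EB − EA·EB, with EA and EB the single-agent effects.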

[2] = test system: NCI-H2023 (Non-Small Cell Lung Carcinoma)
Outline: as §1

[3] = test system: NCI-H1048 (Small Cell Lung Carcinoma)
Outline: as §1

A375 (Melanoma) = test system: A375 (Melanoma)
Outline: as §1

[4] = test system: Daudi (Burkitt's Lymphoma)
Outline: as §1

[5] = test system: TOV-21G (Ovarian Carcinoma)
Outline: as §1

[6] = test system: BC-1 (B-Cell Non-Hodgkin's Lymphoma)
Outline: as §1

[7] = test system: MRK-nu-1 (Breast Carcinoma)
Outline: as §1

[8] = test system: L-363 (Plasma Cell Myeloma)
Outline: as §1

[9] = test system: NCI-H1435 (Non-Small Cell Lung Carcinoma)
Outline: as §1

[10] = test system: KNS-62 (Squamous Cell Lung Carcinoma)
Outline: as §1

[11] = test system: SBC-5 (Small Cell Lung Carcinoma)
Outline: as §1

DK-MG (Glioblastoma) = test system: DK-MG (Glioblastoma)
Outline: as §1

NCI-H2452 (Mesothelioma) = test system: NCI-H2452 (Mesothelioma)
Outline: as §1

[12] = test system: GRANTA-519 (B-Cell Non-Hodgkin's Lymphoma)
Outline: as §1

GCIY (Gastric Carcinoma) = test system: GCIY (Gastric Carcinoma)
Outline: as §1

[13] = test system: NCI-H1648 (Lung Adenocarcinoma)
Outline: as §1

[14] = test system: OCI-M1 (Acute Myeloid Leukemia)
Outline: as §1

[15] = test system: NCI-H2009 (Lung Adenocarcinoma)
Outline: as §1

C32 (Melanoma) = test system: C32 (Melanoma)
Outline: as §1

SMILES	combination Emax [1]	combination Emax [2]	combination Emax [3]	combination Emax (A375 (Melanoma))	combination Emax [4]	combination Emax [5]	combination Emax [6]	combination Emax [7]	combination Emax [8]	combination Emax [9]	combination Emax [10]	combination Emax [11]	combination Emax (DK-MG (Glioblastoma))	combination Emax (NCI-H2452 (Mesothelioma))	combination Emax [12]	combination Emax (GCIY (Gastric Carcinoma))	combination Emax [13]	combination Emax [14]	combination Emax [15]	combination Emax (C32 (Melanoma))
CN(C)CCCOc1ccc(-c2ccc3ncc4c(c3c2)n(C2CCOCC2)c(=O)n4C)cn1 [AZD0156] + C=CCn1c(=O)c2cnc(Nc3ccc(N4CCN(C)CC4)cc3)nc2n1-c1cccc(C(C)(C)O)n1 [AZD1775] (first compound max 1 µM, partner max 1 µM)	0.769	0.633	0.664	0.535	0.781	0.556	0.999	0.246	0.985	0.193	0.185	0.423	0.331	0.589	0.816	0.63	0.587	0.869	0.557	0.442
CN(C)CCCOc1ccc(-c2ccc3ncc4c(c3c2)n(C2CCOCC2)c(=O)n4C)cn1 [AZD0156] + CCN(CCO)CCCOc1ccc2c(Nc3cc(CC(=O)Nc4cccc(F)c4)[nH]n3)ncnc2c1 [AZD2811] (first compound max 1 µM, 7x7, partner max 1 µM)	0.539	0.252	0.547	0.33	0.497	0.266	0.752	0.631	0.192	0.101	0.141	0.313	0.204	0.221	0.364	0.378	0.214	0.222	0.189	0.14
CN(C)CCCOc1ccc(-c2ccc3ncc4c(c3c2)n(C2CCOCC2)c(=O)n4C)cn1 [AZD0156] + C[C@@H]1COCCN1C2=NC(=NC(=C2)C3(CC3)[S@](=N)(=O)C)C4=C5C=CNC5=NC=C4 [AZD6738] (first compound max 1 µM, 7x7, partner max 10 µM)	0.724	0.836	0.468	0.815	0.848	0.652	0.936	0.648	0.92	0.158	0.485	0.813	0.242	0.559	0.82	0.851	0.676	0.982	0.459	0.666
CN(C)CCCOc1ccc(-c2ccc3ncc4c(c3c2)n(C2CCOCC2)c(=O)n4C)cn1 [AZD0156] + O=C(c1cc(Cc2n[nH]c(=O)c3ccccc23)ccc1F)N1CCN(C(=O)C2CC2)CC1 [Olaparib] (first compound max 3 µM, partner max 3 µM)	0.574	0.369	0.352	0.29	0.48	0.282	0.566	0.542	0.356	0.161	0.367	0.194	0.41	0.38	0.151	0.418	0.396	0.534	0.436	0.164
C=CCn1c(=O)c2cnc(Nc3ccc(N4CCN(C)CC4)cc3)nc2n1-c1cccc(C(C)(C)O)n1 [AZD1775] + C[C@@H]1COCCN1C2=NC(=NC(=C2)C3(CC3)[S@](=N)(=O)C)C4=C5C=CNC5=NC=C4 [AZD6738] (first compound max 1 µM, partner max 10 µM)	0.827	0.885	0.886	0.766	0.901	0.71	1	0.802	0.977	0.398	0.565	0.929	0.42	0.747	0.826	0.947	0.833	0.969	0.799	0.73
C=CCn1c(=O)c2cnc(Nc3ccc(N4CCN(C)CC4)cc3)nc2n1-c1cccc(C(C)(C)O)n1 [AZD1775] + O=C(c1cc(Cc2n[nH]c(=O)c3ccccc23)ccc1F)N1CCN(C(=O)C2CC2)CC1 [Olaparib] (first compound max 1 µM, partner max 10 µM)	0.769	0.717	0.874	0.476	0.84	0.587	0.998	0.336	0.964	0.296	0.225	0.507	0.32	0.574	0.804	0.568	0.702	0.869	0.752	0.438

Reference: the supplement of paper PMC11061612
